Source: patent US6683079B2, “3-(amino-or aminoalkyl) pyridinone derivatives and their use for the treatment of HIV related diseases” (Centre National de la Recherche Scientifique, priority 1998, dated 2004)

Experiments:
HIV-1 strain 103 N = assay: Retrovirucidal effect on HIV-1 strain 103 N (Table 3); format: cell-based
Protocol: (§1) HIV-1 viral suspensions were obtained by coculture of MT4 cells and H9 cells chronically infected by HIV-ILai isolate. 200 μl of a cell supernatant containing viral particles (HIV-ILai: 100 TCID50) were incubated at room temperature with various concentrations of different inhibitors. After 3 hours, virions were washed through 0.02 μm anopore membrane in 1.5 mL Vectaspin tube (Whatman) for 10 minutes at 5 000 g. Each of the three subsequent washes was performed in the same conditions after the viral concentrate was refilled with 500 μL of RPMI medium. Then, the viral concentrate was readjusted to the initial volume with RPMI plus 10% foetal calf serum (FCS). The residual infectivity was assayed on P4 cells as described by CHARNEAU et al. (1994, J. Mol. Biol., 241, 651-662). Briefly, P4 cells were plated using 100 μL of DMEM medium plus 10% FCS in 96 plate multi-wells at 20×10^5 cells per mL. After overnight incubation at 37° C., the supernatant was discarded and the viral preparation (200 μL) was added. One day later the wells were washed three times in PBS. Each well was refilled with 200 μL of a reaction buffer containing 50 mM Tris-HCl pH 8.5, 100 mM 2-mercaptoethanol, 0.05% Triton X-100 and 5 mM 4-methylumbelliferyl β-D-galactopyranoside (MUG). After 3 hours at 37° C., the level of the reaction was measured in a fluorescence microplate reader.
The retrovirucidal effect of each pyridinone derivative listed in table 3 has been assayed according to the teachings of example 2, excepted that the anti-viral effect has been tested on the two following HIV-1 strains:
b) HIV-1 strain 103 N which is a mutant strain bearing a point mutation in the reverse transcriptase gene leading to an enzyme wherein the initial Lys-103 residue is replaced for a Asn residue.
The HIV-1 103 N strain has also been described by SAHLBERG et al.,(1998, Antiviral Res., 37 (3): ASS) and BALZARiNI et al. (1996, Antimicrobial Agents and Chemotherapy, 40 (6): 1454-1466).

HIV-1 strain IIIB = assay: Retrovirucidal effect on HIV-1 strain IIIB (Table 3); format: cell-based
Summary of the method: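 Virus (100 TCID50 HIV-1 in cell supernatant) exposed to compound 3 h at room temperature, then washed free of compound by membrane filtration. Residual infectivity measured on P4 cells after one day as β-galactosidase activity with MUG substrate (3 h, 37° C), read by fluorescence.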

HIV-ILai isolate = assay: Retrovirucidal effect (residual infectivity on P4 cells); format: cell-based, HIV-1; conditions: 3 hours with virions
Protocol: The retrovirucidal effect and the reverse transcription were measured as described hereinafter.
as §1
The retrovirucidal effect of the compound according to example 1 has been tested.

[1] = target: T1, recombinant HIV-RT enzyme (Human immunodeficiency virus type 1 group M subtype B, UniProt P03366); assay: Inhibition of the reverse transcriptase; format: biochemical
T1 construct: the recombinant HIV-RT enzyme; made in house
Protocol: (§2) The antiviral activity, the expression and purification of the recombinant HIV-RT enzyme, the reverse transcriptase activities and the inhibition of RT were evaluated as described in WO 97/05 113.
The IC50 of the compound of example 1 for the inhibition of the reverse transcriptase is 20 nM.

HIV-1 IIIIB/MT4 = assay: Anti HIV-1 activity, HIV-1 IIIB in MT4 cells; format: cell-based; conditions: Human immunodeficiency virus 1
Protocol: as §2
(§3) The compound of example 1 has been also tested on various HIV strains and primary cell cultures. The table 1 illustrates the activity of this compound on these strains.

[2] = Anti HIV-1 activity, HIV-1 IIIB in MT4 cells; format: cell-based; conditions: human; HIV-1 IIIIB/MT4
Protocol: as §2, §3

[3] = Anti HIV activity, HIV-2 D 194 in PBMC; format: cell-based; conditions: HIV-2 D 194/PBMC
Protocol: as §2, §3

HIV-2 D 194/PBMC = assay: Anti HIV activity, HIV-2 D 194 in PBMC; format: cell-based; conditions: Human immunodeficiency virus 2
Protocol: as §2, §3

[4] = Anti HIV-1 activity, HIV-1 Bal in monocytes/macrophages; format: cell-based; conditions: HIV-1 Bal/Mono/macrophages
Protocol: as §2, §3

[5] = tested on: HIV-1 Bal/Mono/macrophages; assay: as above; format: cell-based; conditions: Human immunodeficiency virus 1, Macrophage
Protocol: as §2, §3

[6] = Anti HIV-1 activity, HIV-1 IIIB in PBMC; format: cell-based; conditions: HIV-1 IIIB/PBMC
Protocol: as §2, §3

HIV-1 IIIB/PBMC = assay: Anti HIV-1 activity, HIV-1 IIIB in PBMC; format: cell-based; conditions: Human immunodeficiency virus 1
Protocol: as §2, §3

[7] = Antiviral activity on HIV-1 nevirapine resistant strain; format: cell-based; conditions: HIV-1 novirapine resistant strain test
Protocol: as §2
(§4) On an HIV-1 novirapine resistant strain the activities of the compound of example 1 are as follows: […]

[8] = tested on: HIV-1 novirapine resistant strain; assay: as above; format: cell-based; conditions: Human immunodeficiency virus 1
Protocol: as §2, §4

HIV-1 AZTres./MT4 = assay: Anti HIV-1 activity, HIV-1 AZT-resistant strain in MT4 cells; format: cell-based; conditions: Human immunodeficiency virus 1, MT4
Protocol: as §2, §3

[9] = Antiviral activity on HIV-LAI wild type; format: cell-based, HIV-1; conditions: HIV-LAI wild type test
Protocol: as §2
(§5) The antiviral activity of the compounds according to example 1 has been tested on various strains.

HIV-LAI wild type = assay: Antiviral activity on HIV-LAI wild type; format: cell-based, HIV-1; conditions: HIV-LAI wild type
Protocol: as §2, §5

[10] = HIV-1 strain 103N (RT Lys-103 to Asn mutant), pIC50=-log IC50, IC50 in M

| Compound | HIV1 pIC50 strain 103N (HIV-1 strain 103 N; [10]) | HIV1 pIC50 strain IIIB (HIV-1 strain IIIB; pIC50=-log IC50, IC50 in M) | further results |
| --- | --- | --- | --- |
| Cc1cc(C)cc(Cc2c3c([nH]c(=O)c2N)CCCC3)c1 [Compound 172] | 4.903 | 6.419 | – |
| Cc1cc(C)cc(Cc2c3c([nH]c(=O)c2N(C)C)CCCC3)c1 [Compound 173] | 6.489 | 8.086 | – |
| CCc1c(C)[nH]c(=O)c(N(C)C)c1C(=O)c1cccc(Br)c1 [Compound 174] | 7.68 | 8.921 | – |
| CCc1c(C)[nH]c(=O)c(N(C)CCOC)c1C(=O)c1cccc(C)c1 [Compound 175] | 7.717 | 8.921 | – |
| CCc1c(C)[nH]c(=O)c(N(C)C)c1Nc1cccc(C)c1 [Compound 176] | 6.436 | 8.432 | – |
| CCc1c(C)[nH]c(=O)c(N)c1C(=O)c1cccs1 [Compound 177] | <4 | 5.106 | – |
| CCc1c(C)[nH]c(=O)c(N(C)C)c1C(=O)c1cccs1 [Compound 178] | 6.461 | 7.873 | – |
| CCc1c(C)[nH]c(=O)c(NC)c1C(=O)c1cccc(Br)c1 [Compound 179] | 7.182 | 8.42 | – |
| CCc1c(C)[nH]c(=O)c(N(C)CC)c1C(=O)c1cccc(Br)c1 [Compound 185] | 7.433 | 8.745 | – |
| CCc1c(C)[nH]c(=O)c(N(C)C)c1C(=O)c1cc(Br)cs1 [Compound 187] | 7.006 | 8.481 | – |
| CCc1c(C)[nH]c(=O)c(N(C)C)c1Cc1cc(Cl)cc(Cl)c1 [Compound 191] | 7.553 | 8.097 | – |
| CCc1c(C)[nH]c(=O)c(N(C)C)c1C(=O)c1cc(Cl)cc(Cl)c1 [Compound 192] | 8.319 | 8.699 | – |
| CCc1c(C)[nH]c(=O)c(N(C)C)c1Sc1cccc(Br)c1 [Compound 193] | 7.245 | 8.481 | – |
| CCc1c(C)[nH]c(=O)c(N(C)C)c1Oc1cc(C)cc(C)c1 [Compound 201] | – | – | HIV1 pIC50 strain 103N (HIV-1 strain 103 N; retrovirucidal effect, HIV-1 strain 103N (Lys-103 to Asn RT mutant), pIC50=-log IC50 (M)): 7.231; HIV1 pIC50 strain IIIB (HIV-1 strain IIIB; retrovirucidal effect, pIC50=-log IC50 (M)): 8.585 |
| CCc1c(C)[nH]c(=O)c(N(C)C)c1Cc1cc(C)cc(C)c1 [Example 1, 3-dimethylamino-4-(3,5-dimethylbenzyl)-5-ethyl-6-methylpyridin-2(1H)-one] | – | – | % inhibition of infectivity (HIV-ILai isolate; 1 μm compound): 83%; % inhibition of infectivity (HIV-ILai isolate; 10 μm compound): 99%; inhibition at 0.01 µM (HIV-ILai isolate; Human immunodeficiency virus 1, 10 nM compound): 26%; inhibition at 0.1 µM (HIV-ILai isolate; Human immunodeficiency virus 1, 100 nM compound): 46%; IC50 [1]: 20 nM; IC50 (HIV-1 IIIIB/MT4): 2.4 nM; CC50 [2]: > 1000 nM; CC50 [3]: > 1000 nM; IC50 (HIV-2 D 194/PBMC): > 1000 nM; CC50 [4]: > 1000 nM; IC50 [5]: 0.004 nM; CC50 [6]: > 1000 nM; IC50 (HIV-1 IIIB/PBMC): 0.58 nM; CC50 [7]: > 10000 nM; IC50 [8]: > 10000 nM; IC50 (HIV-1 AZTres./MT4): 0.2 nM; CC50 [9]: > 100000 nM; S.I. (HIV-LAI wild type): > 33.333; IC50 (HIV-LAI wild type; Human immunodeficiency virus 1): 0.2 nM |
